Experimental data as given in ChEMBL document CHEMBL1145637, “Dual binding site inhibitors of B-RAF kinase” (Bioorg Med Chem Lett, 2008).
Converted amounts (≈) assume the structure as drawn. The source made the active and inactive calls. The calls are words filed in the database; no cut-off is given here.

Experiments:
[1] = (§1) Metabolic stability in rat liver microsome after 30 mins; assay type: ADME, microsomes; conditions: liver microsomes, read-out: Stability
[2] = Metabolic stability in human liver microsome after 30 mins; assay type: ADME; conditions: liver microsomes, read-out: Stability
[3] = biological target: Serine/threonine-protein kinase B-raf (Homo sapiens, UniProt P15056)
Sequence of Serine/threonine-protein kinase B-raf (Homo sapiens, UniProt P15056) (P15056 whole entry): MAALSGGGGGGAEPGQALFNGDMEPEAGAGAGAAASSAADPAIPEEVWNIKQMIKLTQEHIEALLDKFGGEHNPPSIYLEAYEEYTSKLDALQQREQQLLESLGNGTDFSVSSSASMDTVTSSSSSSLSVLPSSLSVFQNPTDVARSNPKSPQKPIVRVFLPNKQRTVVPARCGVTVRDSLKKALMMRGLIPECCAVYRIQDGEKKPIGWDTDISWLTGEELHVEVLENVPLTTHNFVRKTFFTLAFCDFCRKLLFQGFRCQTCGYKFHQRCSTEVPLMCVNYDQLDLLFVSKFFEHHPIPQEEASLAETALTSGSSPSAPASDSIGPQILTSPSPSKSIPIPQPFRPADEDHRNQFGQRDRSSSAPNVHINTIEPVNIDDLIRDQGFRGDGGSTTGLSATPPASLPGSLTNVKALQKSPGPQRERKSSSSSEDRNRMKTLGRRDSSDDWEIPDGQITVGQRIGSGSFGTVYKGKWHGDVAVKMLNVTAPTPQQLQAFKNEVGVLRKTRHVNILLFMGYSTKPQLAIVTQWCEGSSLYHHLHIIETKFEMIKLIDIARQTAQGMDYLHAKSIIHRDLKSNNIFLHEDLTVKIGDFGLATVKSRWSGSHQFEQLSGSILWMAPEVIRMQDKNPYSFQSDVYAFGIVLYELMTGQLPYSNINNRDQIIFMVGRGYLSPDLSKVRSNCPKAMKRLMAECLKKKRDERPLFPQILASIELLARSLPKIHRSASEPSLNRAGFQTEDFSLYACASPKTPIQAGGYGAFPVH
Description: Inhibition of B-RAF kinase

[4] = Inhibition of ERK phosphorylation
[5] = biological target: Serine/threonine-protein kinase B-raf (Homo sapiens, UniProt P15056, V600E)
Sequence of Serine/threonine-protein kinase B-raf (Homo sapiens, UniProt P15056, V600E) (P15056 2-766 V600E limits assumed): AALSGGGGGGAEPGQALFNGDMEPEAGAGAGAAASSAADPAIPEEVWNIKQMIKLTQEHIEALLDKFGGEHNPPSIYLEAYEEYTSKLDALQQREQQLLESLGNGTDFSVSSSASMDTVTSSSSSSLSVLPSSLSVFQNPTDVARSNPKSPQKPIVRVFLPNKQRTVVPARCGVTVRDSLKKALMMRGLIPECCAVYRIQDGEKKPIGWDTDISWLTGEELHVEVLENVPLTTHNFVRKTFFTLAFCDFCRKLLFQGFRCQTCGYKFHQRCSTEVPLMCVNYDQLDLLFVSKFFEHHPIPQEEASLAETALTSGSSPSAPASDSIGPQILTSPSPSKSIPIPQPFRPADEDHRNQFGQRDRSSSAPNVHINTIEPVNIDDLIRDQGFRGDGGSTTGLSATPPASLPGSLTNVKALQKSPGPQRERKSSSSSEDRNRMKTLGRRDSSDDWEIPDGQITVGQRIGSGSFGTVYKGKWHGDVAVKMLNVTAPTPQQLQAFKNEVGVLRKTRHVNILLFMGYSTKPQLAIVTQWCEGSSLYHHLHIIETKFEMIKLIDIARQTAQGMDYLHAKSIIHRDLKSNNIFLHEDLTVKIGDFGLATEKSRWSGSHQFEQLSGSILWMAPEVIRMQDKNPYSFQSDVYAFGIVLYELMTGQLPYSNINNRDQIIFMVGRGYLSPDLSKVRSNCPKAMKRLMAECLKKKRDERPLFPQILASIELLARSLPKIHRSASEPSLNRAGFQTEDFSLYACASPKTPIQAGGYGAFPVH
Description: Inhibition of B-RAF V600E mutant

[6] = Aqueous solubility in NaH2PO4 at pH 7.4 after 24 hrs by HPLC; assay type: physicochemical; conditions: for solubility at 24 h: NaH2PO4 buffer, pH 7.4; for Activity: buffer, pH 7.4, 24 h
[7] = biological target: RAF proto-oncogene serine/threonine-protein kinase (Homo sapiens, UniProt P04049); assay: Inhibition of C-RAF kinase
Sequence of RAF proto-oncogene serine/threonine-protein kinase (P04049 whole entry): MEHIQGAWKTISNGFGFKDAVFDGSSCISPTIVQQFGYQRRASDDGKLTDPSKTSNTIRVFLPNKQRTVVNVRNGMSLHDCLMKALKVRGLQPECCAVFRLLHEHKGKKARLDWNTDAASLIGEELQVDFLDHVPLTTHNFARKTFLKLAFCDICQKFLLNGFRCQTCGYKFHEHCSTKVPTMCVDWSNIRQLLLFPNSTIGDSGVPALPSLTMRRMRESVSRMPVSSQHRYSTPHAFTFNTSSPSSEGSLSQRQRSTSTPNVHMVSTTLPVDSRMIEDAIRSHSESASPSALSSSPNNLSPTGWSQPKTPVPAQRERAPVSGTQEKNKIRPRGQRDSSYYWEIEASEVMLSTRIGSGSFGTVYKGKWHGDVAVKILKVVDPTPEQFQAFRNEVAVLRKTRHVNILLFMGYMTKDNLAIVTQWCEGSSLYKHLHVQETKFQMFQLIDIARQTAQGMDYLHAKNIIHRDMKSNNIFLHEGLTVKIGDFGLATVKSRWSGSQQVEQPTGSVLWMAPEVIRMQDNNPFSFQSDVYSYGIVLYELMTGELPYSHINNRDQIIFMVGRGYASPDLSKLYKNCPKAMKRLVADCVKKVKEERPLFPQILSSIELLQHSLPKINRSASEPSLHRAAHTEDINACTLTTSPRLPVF

Liver microsomes = assay: as §1; assay type: ADME; conditions: microsomes, 0.5 h

| Compound | remaining at 0.5 h [1] [%] | remaining at 0.5 h [2] [%] | IC50 [3] [nM] | IC50 [4] [nM] | IC50 [5] [nM] | solubility at 24 h [6] [µM] | IC50 [7] [nM] | Activity [4] | Activity [6] | Activity (Liver microsomes) |
| --- | --- | --- | --- | --- | --- | --- | --- | --- | --- | --- |
| O=C(Cc1ccc(Cl)cc1)Nc1cccc(-c2nc(C3CC3)[nH]c2-c2ccnc(NCCN3CCNC3=O)n2)c1 | 60 | 38 | 7 | 3000 | 2 | 35 (≈ 19.5 µg/mL) | 1 |  |  |  |
| CNc1nccc(-c2[nH]c(C3CC3)nc2-c2cccc(NS(=O)(=O)Cc3ccc(Cl)c(Cl)c3)c2)n1 | 87 | 60 | 469 |  | 138 |  | 26 | inactive | Not Active |  |
| O=C1NCCN1CCNc1nccc(-c2nc(C3CC3)[nH]c2-c2cccc(NS(=O)(=O)Cc3ccc(Cl)c(Cl)c3)c2)n1 | 52 | 85 | 343 |  | 141 |  | 41 |  | Not Active |  |
| O=C1NCCN1CCNc1nccc(-c2nc(C3CC3)[nH]c2-c2cc(Cl)ccc2Cl)n1 |  |  | 10 |  |  |  |  |  |  |  |
| NC(=O)c1cccc(Nc2nccc(-c3[nH]c(C(F)(F)F)nc3-c3cccc(NC(=O)Cc4ccc(Cl)cc4)c3)n2)c1 | 47 | 71 | 108 | 30000 | 85 | 0.35 (≈ 0.207 µg/mL) | 17 |  |  |  |
| CC(C)(C)NC(=O)NCCNc1nccc(-c2[nH]c(C3CC3)nc2-c2ccccc2Cl)n1 |  |  | 83 |  |  |  |  |  |  |  |
| CNC(=O)c1cc(Oc2ccc(NC(=O)Nc3ccc(Cl)c(C(F)(F)F)c3)cc2)ccn1 [SORAFENIB] |  | 80 |  | 8300 |  | 6.3 (≈ 2.93 µg/mL) |  |  |  | Not Active |
| O=C(Cc1ccc(Cl)cc1)Nc1cccc(-c2nc(C(F)(F)F)[nH]c2-c2ccnc(NCCN3CCNC3=O)n2)c1 | 34 | 73 | 54 | 30000 | 40 | 7.5 (≈ 4.39 µg/mL) | 20 |  |  |  |
| NC(=O)c1cccc(Nc2nccc(-c3[nH]c(C4CC4)nc3-c3cccc(NS(=O)(=O)Cc4ccc(Cl)c(Cl)c4)c3)n2)c1 |  |  |  |  |  |  |  | inactive |  |  |
| CNc1nccc(-c2[nH]c(C(F)(F)F)nc2-c2cccc(NC(=O)Cc3ccc(Cl)cc3)c2)n1 | 81 | 74 | 30 | 12600 | 18 | 0.48 (≈ 0.234 µg/mL) | 2 |  |  |  |
| NC(=O)c1cccc(Nc2nccc(-c3[nH]c(C4CC4)nc3-c3cccc(NC(=O)Cc4ccc(Cl)cc4)c3)n2)c1 | 58 | 53 | 4 | 2400 | 3 | 0.5 (≈ 0.282 µg/mL) | 0.5 |  |  |  |
| O=C(Nc1cccc(-c2nc(C3CC3)[nH]c2-c2ccnc(NCCN3CCNC3=O)n2)c1)Nc1ccc(Cl)c(C(F)(F)F)c1 | 44 | 50 | 66 | 2300 | 22 | 6.2 (≈ 3.88 µg/mL) | 14 |  |  |  |
| NC(=O)c1cccc(Nc2nccc(-c3nc(C4CC4)[nH]c3-c3cccc(NS(=O)(=O)Cc4ccc(Cl)c(Cl)c4)c3)n2)c1 | 44 | 76 | 887 |  | 274 |  | 49 |  | Not Active |  |
| CNc1nccc(-c2[nH]c(C3CC3)nc2-c2cccc(NC(=O)Cc3ccc(Cl)cc3)c2)n1 |  |  | 9 | 5100 | 3 | 0.4 (≈ 0.184 µg/mL) | 1 |  |  |  |
| CNc1nccc(-c2[nH]c(C3CC3)nc2-c2cccc(NC(=O)Nc3ccc(Cl)c(C(F)(F)F)c3)c2)n1 | 57 | 80 | 21 | 1400 | 16 | 0.3 (≈ 0.158 µg/mL) | 5 |  |  |  |
| NC(=O)c1cccc(Nc2nccc(-c3[nH]c(C4CC4)nc3-c3cccc(NC(=O)Nc4ccc(Cl)c(C(F)(F)F)c4)c3)n2)c1 |  |  | 35 | 2100 | 61 | 0.4 (≈ 0.253 µg/mL) | 31 |  |  |  |
| O=C1NCCN1CCNc1nccc(-c2[nH]c(C3CC3)nc2-c2cccc(NS(=O)(=O)Cc3ccc(Cl)c(Cl)c3)c2)n1 |  |  |  |  |  |  |  | inactive |  |  |
